Measurements reported in ChEMBL document CHEMBL1157282, “Cytotoxic constituents from the stem bark of Dichapetalum gelonioides collected in the Philippines” (J Nat Prod, 2006).
≈ marks a conversion by molar mass, not a printed value.

How the values were obtained:
[1] = Cytotoxicity against human BC1 cells; format: functional; settings: read-out: ED50 (the source's name)
Lu1 = assay: Cytotoxicity against human Lu1 cells; format: functional; settings: read-out: ED50 (the source's name)
Col2 = assay: Cytotoxicity against human Col2 cells; format: functional; settings: read-out: ED50 (the source's name)
KB [2] = assay: Cytotoxicity against human KB cells; format: functional; settings: read-out: ED50 (the source's name)
KB [3] = assay: Cytotoxicity against drug-resistant human KB cells in presence of vinblastine; format: functional; settings: read-out: ED50 (the source's name)
KB [4] = assay: Cytotoxicity against drug-resistant human KB cells in absence of vinblastine; format: functional; settings: read-out: ED50 (the source's name)
LNCaP = assay: Cytotoxicity against human LNCaP cells; format: functional; settings: read-out: ED50 (the source's name)
SW626 = assay: Cytotoxicity against human SW626 cells; format: functional; settings: read-out: ED50 (the source's name)
SK-N-SH = assay: Cytotoxicity against human SKNSH cells; format: functional; settings: read-out: ED50 (the source's name)
[5] = Cytotoxicity against human MEL1 cells; format: functional; settings: read-out: ED50 (the source's name)
[6] = Cytotoxicity against human MEL2 cells; format: functional; settings: read-out: ED50 (the source's name)
MCF7 = assay: Cytotoxicity against human MCF7 cells; format: functional; settings: read-out: ED50 (the source's name)
[7] = Cytotoxicity against HUVEC cells; format: cell-based; settings: human, read-out: ED50 (the source's name)
L1210 = assay: Cytotoxicity against mouse L1210 cells; format: functional

| SMILES | EC50 [1] | EC50 (Lu1) | EC50 (Col2) | EC50 (KB [2]) | EC50 (KB [3]) | EC50 (KB [4]) | EC50 (LNCaP) | EC50 (SW626) | EC50 (SK-N-SH) | EC50 [5] | EC50 [6] | EC50 (MCF7) | CC50 [7] | EC90 (L1210) |
| --- | --- | --- | --- | --- | --- | --- | --- | --- | --- | --- | --- | --- | --- | --- |
| C=C1C(=O)C(O)=C[C@@H]2[C@@]3(C)CC[C@](C)(C(=O)OC)C[C@@H]3CC[C@]12C | 0.6 µg/mL (≈ 1.8 µM) | 1.6 µg/mL (≈ 4.81 µM) | 0.8 µg/mL (≈ 2.41 µM) | 0.7 µg/mL (≈ 2.11 µM) | 1.7 µg/mL | 1.8 µg/mL (≈ 5.41 µM) | 0.9 µg/mL (≈ 2.71 µM) | 1.6 µg/mL (≈ 4.81 µM) | 0.8 µg/mL (≈ 2.41 µM) |  |  |  |  |  |
| C[C@H]1C(=O)CC[C@H]2[C@]3(C)CC[C@@]4(C)[C@@H]5CC(C)(C)CC[C@]5(CO)CC[C@]4(C)[C@H]3C[C@@H](O)[C@]12C | > 20 µg/mL | > 20 µg/mL | > 20 µg/mL | > 20 µg/mL | > 20 µg/mL | > 20 µg/mL | > 20 µg/mL | > 20 µg/mL | 13 µg/mL (≈ 28.3 µM) |  |  |  |  |  |
| C=C1C(=O)C(O)=C[C@@H]2[C@@]3(C)CC[C@](C)(C(=O)O)C[C@@H]3CC[C@]12C | 4 µg/mL (≈ 12.6 µM) | 3.8 µg/mL (≈ 11.9 µM) | 2.7 µg/mL (≈ 8.48 µM) | 3.7 µg/mL (≈ 11.6 µM) | 4.3 µg/mL | 5 µg/mL (≈ 15.7 µM) | 3.7 µg/mL (≈ 11.6 µM) | 5 µg/mL (≈ 15.7 µM) | 9 µg/mL (≈ 28.3 µM) |  |  |  |  |  |
| CC1=C(O)C(=O)C[C@@H]2[C@@]3(C)CC[C@](C)(C(=O)O)C[C@@H]3CC[C@]12C | 12.2 µg/mL (≈ 38.1 µM) | > 20 µg/mL | 11.2 µg/mL (≈ 35 µM) | 16.2 µg/mL (≈ 50.6 µM) | > 20 µg/mL | > 20 µg/mL | 10.8 µg/mL (≈ 33.7 µM) | 15.8 µg/mL (≈ 49.3 µM) | 10.4 µg/mL (≈ 32.5 µM) |  |  |  |  |  |
| C=C(C)[C@@H]1CC[C@]2(C(=O)O)CC[C@]3(C)[C@H](CC[C@@H]4[C@@]5(C)CC[C@H](O)C(C)(C)[C@@H]5CC[C@]43C)[C@@H]12 [BETULINIC ACID] | > 20 µg/mL | > 20 µg/mL | > 20 µg/mL | > 20 µg/mL | > 20 µg/mL | > 20 µg/mL | > 20 µg/mL | > 20 µg/mL | > 20 µg/mL | 1.1 µg/mL (≈ 2.41 µM) | 2 µg/mL (≈ 4.38 µM) |  |  |  |
| C/C(=C\[C@H]1C[C@@H]([C@@H]2CC[C@]34C[C@]23C=C[C@@H]2[C@@]3(C)CC=C5C[C@@H](c6ccccc6)OC[C@]5(C)[C@@H]3C[C@@H](O)[C@]24C)C(=O)O1)CO [DICHAPETALIN A] | > 20 µg/mL | 4.1 µg/mL (≈ 7.01 µM) | 6.1 µg/mL (≈ 10.4 µM) | 3.6 µg/mL (≈ 6.16 µM) | 11.6 µg/mL | > 20 µg/mL | 7 µg/mL (≈ 12 µM) | 0.2 µg/mL (≈ 0.342 µM) | 6.9 µg/mL (≈ 11.8 µM) |  |  | 2.1 µg/mL (≈ 3.59 µM) | 5.5 µg/mL (≈ 9.4 µM) | < 0.0001 µg/mL |
| C/C(=C\[C@H]1C[C@@H]([C@@H]2CC[C@]34C[C@]23[C@H](O)C[C@@H]2[C@@]3(C)CC=C5C[C@@H](c6ccccc6)OC[C@]5(C)[C@@H]3C[C@@H](O)[C@]24C)C(=O)O1)CO [DICHAPETALIN I] | > 20 µg/mL | 7.6 µg/mL (≈ 12.6 µM) | 4.1 µg/mL (≈ 6.8 µM) | 16.6 µg/mL (≈ 27.5 µM) | > 20 µg/mL | > 20 µg/mL | > 20 µg/mL | 0.5 µg/mL (≈ 0.829 µM) | 9.9 µg/mL (≈ 16.4 µM) |  |  |  |  |  |
| COc1ccc([C@@H]2CC3=CC[C@]4(C)[C@H]5C[C@@H](O)[C@]67C[C@]6(CC[C@H]7[C@@H]6C[C@H](/C=C(\C)CO)OC6=O)[C@]5(C)[C@H](O)C[C@H]4[C@@]3(C)CO2)cc1 [DICHAPETALIN J] | > 20 µg/mL | 14.5 µg/mL (≈ 22.9 µM) | 2.1 µg/mL (≈ 3.32 µM) | 16.4 µg/mL (≈ 25.9 µM) | > 20 µg/mL | > 20 µg/mL | 16.4 µg/mL (≈ 25.9 µM) | 0.4 µg/mL (≈ 0.632 µM) | 4 µg/mL (≈ 6.32 µM) |  |  |  |  |  |
| COc1ccc([C@@H]2CC3=CC[C@]4(C)[C@H]5C=C[C@]67C[C@]6(CC[C@H]7[C@@H]6C[C@H](/C=C(\C)CO)OC6=O)[C@]5(C)[C@H](O)C[C@H]4[C@@]3(C)CO2)cc1 [DICHAPETALIN K] |  | 1 µg/mL (≈ 1.63 µM) |  |  |  |  | 2.6 µg/mL (≈ 4.23 µM) | 3 µg/mL (≈ 4.88 µM) |  |  |  | 1 µg/mL (≈ 1.63 µM) | 2.2 µg/mL (≈ 3.58 µM) |  |
| C/C(=C\[C@H]1C[C@@H]([C@@H]2CC[C@]34C[C@]23CC[C@@H]2[C@@]3(C)CC=C5C[C@@H](c6ccccc6)OC[C@]5(C)[C@@H]3C[C@@H](O)[C@]24C)C(=O)O1)CO [DICHAPETALIN L] |  | 1 µg/mL (≈ 1.7 µM) |  |  |  |  | 1.1 µg/mL (≈ 1.87 µM) | 8.3 µg/mL (≈ 14.1 µM) |  |  |  | 2.1 µg/mL (≈ 3.58 µM) | 4.2 µg/mL (≈ 7.16 µM) |  |
| C[C@H]1C(=O)CC[C@H]2[C@]3(C)CC[C@@]4(C)[C@@H]5CC(C)(C)CC[C@]5(C)CC[C@]4(C)[C@H]3C[C@@H](O)[C@]12C [ZEYLANOL] | > 20 µg/mL | 10.9 µg/mL (≈ 24.6 µM) | > 20 µg/mL | > 20 µg/mL | > 20 µg/mL | > 20 µg/mL |  | > 20 µg/mL | 16.8 µg/mL (≈ 37.9 µM) |  |  |  |  |  |
